Reference: paper PMC10539439 (Pharmacological Reports, 2023)
Several values for one entry are separate records, joined by “and”; a condition that tells them apart may be missing. Equal entries are not always repeated.

Key:
Assay type in all cases: in vivo, rat
[1] = Obesity induced with a high-fat diet: body weight; conditions: for effect on body weight (in words): vs obese control; for body weight of rat in g in particular day / change of body weight: hight-fat diet; for change of body weight: individual rats
Protocol: The experiments were carried out on male Wistar rats ([…]). Initial body weight was: 140–160 g obesity model or 190–220 g rats in which the obesity model was not induced. The animals were housed in pairs in plastic cages in constant temperature facilities exposed to a light–dark cycle; water and food were available ad libitum. The control and experimental groups consisted of six-to-eight animals each. All experiments were carried out according to the guidelines of the Jagiellonian University Animal Use and Care Committee and were approved for realization (Permissions No. 54/2012 and No. 128/2017).
Male Wistar rats were housed in pairs and fed a high-fat diet consisting of a 40% fat blend (Labofeed B with 40% lard, Morawski, Manufacturer Feed, Poland) for 14 weeks, with water available ad libitum. Control rats were fed a standard diet (Labofeed B, Morawski Manufacturer Feed, Poland). After 10 weeks, rats with obesity-induced via their diet were randomly divided into three equal groups that had the same mean body weight and were treated ip with test compounds at doses of 2 or 5 mg/kg b.w./day (high-fat diet + 4OHGuanabenz) or control group: vehicle–water 0.3 ml/kg (high-fat diet + vehicle = obesity control group) once a day in the morning between 9:00 AM and 10:00 AM for 25 days. Control rats were maintained on a standard diet, with ip administration of vehicle – water (standard diet + vehicle = control group).
The high-fat diet contained 550 kcal and the standard diet 280 kcal per 100 g.

[2] = Spontaneous activity in the home cage (RFID, TraffiCage); conditions: for activity: hight-fat diet, 5mg/kg, after first administration, 5 mg/kg
Protocol: Rat spontaneous activity was monitored for 24 h on the 1st and 24th (after multiple administrations of tested compound or vehicle) day of treatment with a radio-frequency identification system (RFID system)—TraffiCage (TSE-Systems, Germany)—transponder-based activity monitoring under group housing. The animals had subcutaneously implanted transponder identification with RFID code, which allowed the presence and time spent in different areas of the home cage to be recorded. The data were collected with a dedicated platform, placed under the home cage, containing five RFID antennas (six cage areas) reading telemetrically the presence of RFID chips and stored for analysis with a dedicated computer program. The animals during the monitoring of spontaneous activity were in home cages and always had free access to food and water.

[3] = Body weight of non-obese rats fed a standard diet; conditions: for body weight of rat in g in particular day: standard diet, 5 mg/kg
Protocol: Male Wistar rats (190–220 g) were housed in pairs. The control group (standard diet + vehicle) received vehicle (water, ip), while the test group (standard diet + 4-OH-Guanabenz) was injected (ip) with 4-OH-Guanabenz at a dose of 5 mg/kg b.w. dissolved in water. Body weights were measured daily immediately prior to drug administration.

SMILES: Cl.N=C(N)NN=Cc1c(Cl)cc(O)cc1Cl [4-OH-Guanabenz, 2-[(2,6-Dichloro-4-hydroxyphenyl)methylene]hydrazinecarboximidamide Hydrochloride]
- effect on body weight (in words) ([1]; high-fat diet rats, 2 mg/kg b.w. ip, 25 days): did not cause weight loss, but significantly reduced weight gain
- weight loss compared to the baseline weight before treatment ([1]; high-fat diet rats, 5 mg/kg b.w. ip once a day, 25 days): approximately 14.8%
- effect on body weight (in words) ([1]; high-fat diet rats, 5 mg/kg b.w. ip, 25 days): significant decrease in body weight
- body weight of rat in g in particular day ([1]; 2mg/kg, day 1, individual rats, 2 mg/kg): 405 g (3×) and 415 g and 410 g (2×)
- body weight of rat in g in particular day ([1]; 2mg/kg, day 3, individual rats, 2 mg/kg): 405 g (2×) and 410 g and 414 g (2×) and 406 g
- body weight of rat in g in particular day ([1]; 2mg/kg, day 5, individual rats, 2 mg/kg): 409 g (2×) and 411 g and 413 g (2×) and 415 g
- body weight of rat in g in particular day ([1]; 2mg/kg, day 7, individual rats, 2 mg/kg): 408 g (2×) and 414 g and 412 g (2×) and 416 g
- body weight of rat in g in particular day ([1]; 2mg/kg, day 9, individual rats, 2 mg/kg): 406 g (2×) and 414 g and 415 g (2×) and 422 g
- body weight of rat in g in particular day ([1]; 2mg/kg, day 11, individual rats, 2 mg/kg): 412 g (2×) and 413 g and 417 g (2×) and 423 g
- body weight of rat in g in particular day ([1]; 2mg/kg, day 13, individual rats, 2 mg/kg): 409 g (2×) and 418 g and 414 g (2×) and 425 g
- body weight of rat in g in particular day ([1]; 2mg/kg, day 15, individual rats, 2 mg/kg): 410 g (2×) and 422 g and 401 g (2×) and 428 g
- body weight of rat in g in particular day ([1]; 2mg/kg, day 17, individual rats, 2 mg/kg): 412 g (2×) and 422 g and 403 g (2×) and 430 g
- body weight of rat in g in particular day ([1]; 2mg/kg, day 19, individual rats, 2 mg/kg): 412 g (2×) and 424 g and 407 g (2×) and 433 g
- body weight of rat in g in particular day ([1]; 2mg/kg, day 21, individual rats, 2 mg/kg): 415 g (2×) and 429 g and 412 g (2×) and 434 g
- body weight of rat in g in particular day ([1]; 2mg/kg, day 23, individual rats, 2 mg/kg): 408 g (2×) and 434 g and 415 g (2×) and 435 g
- body weight of rat in g in particular day ([1]; 2mg/kg, day 25, individual rats, 2 mg/kg): 405 g (2×) and 432 g and 415 g (2×) and 439 g
- change of body weight ([1]; 2mg/kg): 34 g/25days and 5 g/25days and 0 g/25days and 17 g/25days
- body weight of rat in g in particular day ([1]; 5mg/kg, day 1, individual rats, 5 mg/kg): 378 g and 415 g and 418 g and 409 g and 381 g and 457 g
- body weight of rat in g in particular day ([1]; 5mg/kg, day 3, individual rats, 5 mg/kg): 367 g and 412 g and 410 g and 387 g and 366 g and 443 g
- body weight of rat in g in particular day ([1]; 5mg/kg, day 5, individual rats, 5 mg/kg): 358 g and 396 g and 405 g and 374 g and 360 g and 427 g
- body weight of rat in g in particular day ([1]; 5mg/kg, day 7, individual rats, 5 mg/kg): 344 g and 387 g and 385 g and 364 g and 347 g and 411 g
- body weight of rat in g in particular day ([1]; 5mg/kg, day 9, individual rats, 5 mg/kg): 339 g and 377 g and 376 g and 357 g and 340 g and 394 g
- body weight of rat in g in particular day ([1]; 5mg/kg, day 11, individual rats, 5 mg/kg): 335 g and 372 g and 373 g and 350 g and 340 g and 388 g
- body weight of rat in g in particular day ([1]; 5mg/kg, day 13, individual rats, 5 mg/kg): 326 g and 364 g and 373 g and 348 g and 336 g and 386 g
- body weight of rat in g in particular day ([1]; 5mg/kg, day 15, individual rats, 5 mg/kg): 327 g and 363 g and 377 g and 350 g and 334 g and 384 g
- body weight of rat in g in particular day ([1]; 5mg/kg, day 17, individual rats, 5 mg/kg): 326 g and 362 g and 384 g and 348 g and 331 g and 386 g
- body weight of rat in g in particular day ([1]; 5mg/kg, day 19, individual rats, 5 mg/kg): 327 g and 356 g and 377 g (2×) and 349 g and 333 g
- body weight of rat in g in particular day ([1]; 5mg/kg, day 21, individual rats, 5 mg/kg): 314 g and 353 g and 370 g and 334 g and 328 g and 367 g
- body weight of rat in g in particular day ([1]; 5mg/kg, day 23, individual rats, 5 mg/kg): 310 g and 355 g and 373 g and 342 g and 328 g and 365 g
- body weight of rat in g in particular day ([1]; 5mg/kg, day 25, individual rats, 5 mg/kg): 315 g and 357 g and 378 g and 348 g and 325 g and 370 g
- change of body weight ([1]; 5mg/kg): -56 g/25days and -87 g/25days and -63 g/25days and -58 g/25days and -40 g/25days and -61 g/25days
- activity ([2]; hour 2, individual rats): 241 counts and 466 counts and 407 counts and 76 counts and 54 counts
- activity ([2]; hour 3, individual rats): 175 counts and 744 counts and 1081 counts and 269 counts and 412 counts
- activity ([2]; hour 4, individual rats): 468 counts and 421 counts and 262 counts and 105 counts and 179 counts
- activity ([2]; hour 5, individual rats): 721 counts and 62 counts and 232 counts and 2 counts and 78 counts
- activity ([2]; hour 6, individual rats): 248 counts and 6* counts and 445 counts and 569 counts and 80 counts
- activity ([2]; hour 7, individual rats): 1058 counts and 287 counts and 302 counts and 211 counts and 276 counts
- activity ([2]; hour 8, individual rats): 513 counts and 751 counts and 432 counts (2×) and 306 counts
- activity ([2]; hour 9, individual rats): 853 counts and 240 counts and 521 counts and 547 counts and 173 counts
- activity ([2]; hour 10, individual rats): 276 counts and 938 counts and 536 counts and 556 counts and 142 counts
- activity ([2]; hour 11, individual rats): 504 counts and 558 counts and 708 counts and 326 counts and 403 counts
- activity ([2]; hour 12, individual rats): 347 counts and 440 counts and 410 counts and 404 counts and 692 counts
- activity ([2]; hour 13, individual rats): 674 counts and 446 counts and 516 counts and 428 counts and 684 counts
- activity ([2]; hour 14, individual rats): 437 counts and 1077* counts and 632 counts and 394 counts and 897 counts
- activity ([2]; hour 15, individual rats): 692 counts and 273 counts and 929 counts and 462 counts and 743 counts
- activity ([2]; hour 16, individual rats): 387 counts and 825 counts and 409 counts and 821 counts and 664 counts
- activity ([2]; hour 17, individual rats): 618 counts and 1081 counts and 250 counts and 383 counts and 813 counts
- activity ([2]; hour 18, individual rats): 339 counts and 628 counts and 260 counts and 133 counts and 576 counts
- activity ([2]; hour 19, individual rats): 608 counts and 953 counts and 971 counts and 592 counts and 271 counts
- activity ([2]; hour 20, individual rats): 298 counts and 398 counts and 614 counts and 684 counts and 663 counts
- activity ([2]; hour 21, individual rats): 215 counts and 344 counts and 275 counts and 266 counts and 475 counts
- effect on spontaneous activity (in words) ([2]; obese rats, after the first and 24th administration, 5 mg/kg b.w.): no effect
- effect on body weight (in words) ([3]; rats fed standard diet, 5 mg/kg b.w. ip): No significant effects on body weight
- body weight of rat in g in particular day ([3]; day 1, individual rats): 206 g and 214 g and 229 g and 239 g
- body weight of rat in g in particular day ([3]; day 2, individual rats): 206 g and 217 g and 231 g and 242 g
- body weight of rat in g in particular day ([3]; day 3, individual rats): 203 g and 214 g and 223 g and 240 g
- body weight of rat in g in particular day ([3]; day 4, individual rats): 207 g and 216 g and 230 g and 238 g
- body weight of rat in g in particular day ([3]; day 5, individual rats): 210 g and 220 g and 230 g and 241 g
- body weight of rat in g in particular day ([3]; day 6, individual rats): 212 g and 222 g and 230 g and 241 g
- body weight of rat in g in particular day ([3]; day 7, individual rats): 212 g and 218 g and 231 g and 244 g
- body weight of rat in g in particular day ([3]; day 8, individual rats): 214 g and 212 g and 227 g and 240 g
- body weight of rat in g in particular day ([3]; day 9, individual rats): 210 g (2×) and 222 g and 237 g
- body weight of rat in g in particular day ([3]; day 10, individual rats): 212 g and 215 g and 225 g and 240 g
- body weight of rat in g in particular day ([3]; day 11, individual rats): 213 g and 214 g and 222 g and 239 g
- body weight of rat in g in particular day ([3]; day 12, individual rats): 211 g and 213 g and 224 g and 241 g
- body weight of rat in g in particular day ([3]; day 13, individual rats): 214 g and 212 g and 225 g and 242 g
- body weight of rat in g in particular day ([3]; day 14, individual rats): 215 g and 211 g and 225 g and 239 g
- body weight of rat in g in particular day ([3]; day 15, individual rats): 217 g and 211 g and 224 g and 242 g
- body weight of rat in g in particular day ([3]; day 16, individual rats): 217 g and 213 g and 225 g and 242 g
- body weight of rat in g in particular day ([3]; day 17, individual rats): 218 g and 212 g and 226 g and 243 g
- body weight of rat in g in particular day ([3]; day 18, individual rats): 218 g and 214 g and 227 g and 243 g
- body weight of rat in g in particular day ([3]; day 19, individual rats): 219 g and 214 g and 227 g and 244 g
- body weight of rat in g in particular day ([3]; day 20, individual rats): 220 g and 215 g and 228 g and 244 g
- body weight of rat in g in particular day ([3]; day 21, individual rats): 220 g and 216 g and 228 g and 245 g
- body weight of rat in g in particular day ([3]; day 22, individual rats): 221 g and 216 g and 229 g and 245 g
- body weight of rat in g in particular day ([3]; day 23, individual rats): 221 g and 217 g and 229 g and 246 g
- body weight of rat in g in particular day ([3]; day 24, individual rats): 220 g and 217 g and 230 g and 246 g
- body weight of rat in g in particular day ([3]; day 25, individual rats): 221 g and 218 g and 230 g and 247 g
